Test results from patent US11618747B2, “LXR modulators with bicyclic core moiety” (OrsoBio, Inc., priority 2018, dated 2023).

What was measured:
[1] = molecular target: T1, LXRβ ligand-binding domain (Homo sapiens, UniProt P55055, DUP175-175); assay: TR-FRETβ activity assay (NCoA3 coactivator peptide recruitment); format: biochemical; details: TR-FRET, 1 μM 24(S)-25-epoxycholesterol prestimulation; read-out: FRETβ (EC50 range)
T1 construct: amino acids 156-461; NP009052; made in house; host or cells: E. coli
T1 sequence (P55055 with tags, fused parts or gaps DUP175-175 limits assumed): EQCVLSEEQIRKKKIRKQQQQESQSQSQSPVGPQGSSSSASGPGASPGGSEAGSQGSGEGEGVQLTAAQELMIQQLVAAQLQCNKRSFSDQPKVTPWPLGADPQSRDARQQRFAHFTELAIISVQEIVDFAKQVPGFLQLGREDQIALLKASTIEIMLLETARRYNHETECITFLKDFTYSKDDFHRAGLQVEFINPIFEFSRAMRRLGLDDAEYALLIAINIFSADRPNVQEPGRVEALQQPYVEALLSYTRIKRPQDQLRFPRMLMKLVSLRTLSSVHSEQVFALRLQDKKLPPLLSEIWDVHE
Summary of the method: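 Inverse agonism assessed by loss of coactivator recruitment, read as TR-FRET 665/615 nm after 1 h equilibration at 4 °C, in triplicate. Ten-point titration from 50 μM to 0.002 μM against LXRβ LBD (76 nM, GST fusion) prestimulated with 1 μM 24(S)-25-epoxycholesterol, with 400 nM NCoA3 peptide, pH 6.8. Sulfonyl acetic acids kept as 20 mM DMSO stocks with 100 mM TFA.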

[2] = molecular target: T2, ligand-binding domain (LBD) of LXRβ (Homo sapiens, UniProt P55055, DUP175-175); assay: LXR Gal4 reporter transient transfection assay (LBD-M2H Gal4β); format: cell-based; details: HEK293 cells, LXRβ LBD; read-out: LBD-M2H Gal4β (EC50 range)
T2 construct: LXRβ (amino acids 156-461); expressed in transfected cells; host or cells: HEK293
T2 sequence (P55055 with tags, fused parts or gaps DUP175-175 limits assumed): T1 sequence (P55055 with tags, fused parts or gaps DUP175-175 limits assumed)
Method: (§1) The tested compounds were usually dissolved, tested and stored as 20 mM stock solutions in DMSO. Since sulfonyl acetic acid derivatives tend to decarboxylate under these conditions, these stock solutions were prepared, tested and stored as 20 mM DMSO stock solutions containing 100 mM trifluoroacetic Acid (5 equivalents). Sulfonyl acetic acid derivatives are shelf stable as solid at rt for long time as reported by Griesbrecht et al. (Synlett 2010:374) or Faucher et al. (J. Med. Chem. 2004; 47:18).
(§2) LXR Gal4 Reporter Transient Transfection Assays
(§3) LXRα and LXRβ activity status was determined via detection of interaction with coactivator and corepressor proteins in mammalian two-hybrid experiments (M2H). For this, via transient transfection the full length (FL) proteins of LXRα (amino acids 1-447; NP005684; SEQ ID NO:1) or LXRβ-(amino acids 1-461; NP009052; SEQ ID NO:2) or the ligand-binding domains (LBD) of LXRα (amino acids 155-447 SEQ ID NO:3) or LXRβ (amino acids 156-461; SEQ ID NO:4) were expressed from pCMV-AD (Stratagene) as fusions to the transcriptional activation domain of NFkB. As cofactors, domains of either the steroid receptor coactivator 1 (SRC1; amino acids 552-887; SEQ ID NO:5) or of the corepressor NCoR (amino acids 1906-2312; NP006302; SEQ ID NO:6) were expressed as fusions to the DNA binding domain of the yeast transcription factor GAL4 (from pCMV-BD; Stratagene). Interaction was monitored via activation of a coexpressed Firefly Luciferase Reporter gene under control of a promoter containing repetitive GAL4 response elements (vector pFRLuc; Stratagene). Transfection efficiency was controlled via cotransfection of constitutively active pRL-CMV Renila reniformis luciferase reporter (Promega). HEK293 cells were grown in minimum essential medium (MEM) with 2 mM L-glutamine and Earle's balanced salt solution supplemented with 8.3% fetal bovine serum, 0.1 mM non-essential amino acids, 1 mM sodium pyruvate, at 37° C. in 5% CO2. 3.5×10^4 cells/well were plated in 96-well cell culture plates in growth medium supplemented with 8.3% fetal bovine serum for 16-20 h to ˜90% confluency. For transfection, medium was taken off and LXR and cofactor expressing plasmids as well as the reporter plasmids are added in 30 μL OPTIMEM/well including polyethylene-imine (PEI) as vehicle. Typical amounts of plasmids transfected/well: pCMV-AD-LXR (5 ng), pCMV-BD-cofactor (5 ng), pFR-Luc (100 ng), pRL-CMV (0.5 ng). Compound stocks were prepared in DMSO, prediluted in MEM to a total volume of 120 μL, and added 4 h after addition of the transfection mixture (final vehicle concentration not exceeding 0.2%). Cells were incubated for additional 16 h, lysed for 10 min in 1× Passive Lysis Buffer (Promega) and Firefly and Renilla luciferase activities were measured sequentially in the same cell extract using buffers containing D-luciferine and coelenterazine, respectively. Measurements of luminescence were done in a BMG-luminometer.

[3] = molecular target: T3, ligand-binding domain (LBD) of LXRα (Homo sapiens, UniProt Q13133); assay: LXR Gal4 reporter transient transfection assay (LBD-M2H Gal4α); format: cell-based; details: HEK293 cells, LXRα LBD; read-out: LBD-M2H Gal4α (EC50 range)
T3 construct: expressed in transfected cells; host or cells: HEK293
T3 sequence (Q13133 155-447): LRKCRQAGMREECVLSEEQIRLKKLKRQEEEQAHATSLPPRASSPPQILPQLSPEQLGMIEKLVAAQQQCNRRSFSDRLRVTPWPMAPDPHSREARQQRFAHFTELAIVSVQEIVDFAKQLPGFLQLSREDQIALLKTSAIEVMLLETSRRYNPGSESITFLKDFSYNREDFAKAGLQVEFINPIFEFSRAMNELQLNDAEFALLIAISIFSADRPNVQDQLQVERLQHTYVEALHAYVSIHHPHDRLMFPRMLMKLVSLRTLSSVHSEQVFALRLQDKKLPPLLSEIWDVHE
Method: as §1, §2, §3

| SMILES | EC50 [1] [nM] | EC50 [2] [nM] | EC50 [3] [nM] |
| --- | --- | --- | --- |
| N#Cc1c(OCC(=O)O)cccc1-c1c(-c2cccs2)n(S(=O)(=O)c2ccc(Cl)cc2)c2ccccc12 [21/2] | 1000 to 10000 | 1000 to 10000 | 1000 to 10000 |
| Cc1ccc(S(=O)(=O)n2c(-c3cccc(C(C)(C)C(=O)O)c3)c(-c3ccsc3C#N)c3ccccc32)cc1 [3/20] | 1000 to 10000 | < 100 | 100 to 1000 |
| N#Cc1sccc1-c1c(-c2cccs2)n(S(=O)(=O)c2ccc(Cl)cc2)c2cc(OCCCC(=O)O)ccc12 [15/4] | 1000 to 10000 | < 100 | 100 to 1000 |
| N#Cc1sccc1-c1c(-c2cccs2)n(S(=O)(=O)c2ccc(F)cc2)c2ccccc12 [20/11] | 100 to 1000 | < 100 | < 100 |
| N#Cc1sccc1-c1c(-c2cccs2)n(S(=O)(=O)C2CCCCC2)c2ccccc12 [Example 24, 3-(1-(Cyclohexylsulfonyl)-2-(thiophen-2-yl)-1H-indol-3-yl)thiophene-2-carbonitrile] | 1000 to 10000 | < 100 | 100 to 1000 |
| COc1ccc(S(=O)(=O)n2c(-c3ccccc3)c(-c3c(C#N)sc4ccccc34)c3ccccc32)cc1 [20/18] |  | < 100 | 100 to 1000 |
| N#Cc1sccc1-c1c(-c2ccccc2)n(S(=O)(=O)c2cccnc2)c2ccccc12 [1/41] | 1000 to 10000 | < 100 | 100 to 1000 |
| N#Cc1sccc1-c1c(-c2cccc(N3CCC(C(=O)O)C3)c2)n(S(=O)(=O)c2ccc(Cl)cc2)c2ccccc12 (stereo not drawn) [30/11] | 100 to 1000 | < 100 | 100 to 1000 |
| Cc1ccc(S(=O)(=O)n2c(-c3cccc(C4CC4C(=O)O)c3)c(-c3ccsc3F)c3ccccc32)cc1 (stereo not drawn) [30/14] | 1000 to 10000 | 100 to 1000 | 100 to 1000 |
| COc1ccc(S(=O)(=O)n2c(-c3ccccc3)c(-c3cc(C)sc3C#N)c3ccccc32)cc1 [20/23] | 1000 to 10000 | 100 to 1000 | 100 to 1000 |
| N#Cc1sccc1-c1c(-c2cccs2)n(S(=O)(=O)c2cccc3ccccc23)c2ccccc12 [1/27] | 1000 to 10000 | < 100 | 100 to 1000 |
| COc1ccc2c(-c3ccsc3C#N)c(-c3cccs3)n(S(=O)(=O)c3ccc(Cl)cc3)c2c1 [1/40] | 1000 to 10000 | < 100 | 100 to 1000 |
| Cc1ccc(S(=O)(=O)n2c(-c3cc(C4CC4C(=O)O)cs3)c(-c3ccsc3C#N)c3ccccc32)cc1 (stereo not drawn) [3/17] | 1000 to 10000 | < 100 | 100 to 1000 |
| Cn1cnc(S(=O)(=O)n2c(-c3cccs3)c(-c3ccsc3C#N)c3ccccc32)c1 [1/28] | 1000 to 10000 | < 100 | 100 to 1000 |
| Cc1ccc(S(=O)(=O)n2c(-c3ccsc3)c(-c3ccsc3C#N)c3ccccc32)cc1 [1/23] | 100 to 1000 | < 100 | < 100 |
| N#Cc1sccc1-c1c(-c2cccc(N3CC(C(=O)O)C3)n2)n(S(=O)(=O)c2ccc(Cl)cc2)c2ccccc12 [30/6] | 1000 to 10000 | 100 to 1000 | 100 to 1000 |
| Cc1ccc(S(=O)(=O)n2c(-c3cccc(/C=C/C(=O)O)c3)c(-c3ccsc3C#N)c3ccccc32)cc1 [3/18] | 1000 to 10000 | < 100 | 100 to 1000 |

| SMILES | EC50 [1] [nM] | EC50 [2] [nM] | EC50 [3] [nM] |
| --- | --- | --- | --- |
| Cc1ccc(S(=O)(=O)n2c(-c3ccc(/C=C/C(=O)O)s3)c(-c3ccsc3C#N)c3ccccc32)cc1 [3/19] | 1000 to 10000 | 100 to 1000 | 100 to 1000 |
| Cc1ccc(S(=O)(=O)n2c(-c3cccc(-c4cncc(C(C)(C)C(=O)O)c4)c3)c(-c3ccsc3C#N)c3ccccc32)cc1 [30/3] |  | 100 to 1000 | 100 to 1000 |
| N#Cc1sccc1-c1c(-c2ccc(C3CC3C(=O)O)s2)n(S(=O)(=O)c2ccc(Cl)cc2)c2ccccc12 (stereo not drawn) [30/8] | 1000 to 10000 | 100 to 1000 | 100 to 1000 |
| N#Cc1sccc1-c1c(-c2cccs2)n(S(=O)(=O)c2ccc(Cl)cc2)c2cc(O)ccc12 [13/1] | 1000 to 10000 | < 100 | < 100 |
| N#Cc1sccc1-c1c(-c2cc(Cl)cc(C3CC3C(=O)O)c2)n(S(=O)(=O)c2ccc(Cl)cc2)c2ccccc12 (stereo not drawn) [30/9] | 1000 to 10000 | < 100 | 100 to 1000 |
| COc1ccc(S(=O)(=O)n2c(-c3ccccc3)c(-c3ccsc3C)c3ccccc32)cc1 [20/21] | 1000 to 10000 | < 100 | 100 to 1000 |
| Cc1ccc(S(=O)(=O)n2c(-c3cccc(C4CC4C(=O)O)c3)c(-c3ccc(F)cc3C#N)c3ccccc32)cc1 (stereo not drawn) [30/15] | 1000 to 10000 | 100 to 1000 | 100 to 1000 |
| N#Cc1nccnc1-c1c(-c2cccs2)n(S(=O)(=O)c2ccc(Cl)cc2)c2ccccc12 [20/7] | 1000 to 10000 | < 100 | 100 to 1000 |
| Cc1ccc(S(=O)(=O)n2c(-c3ccc(CC(C)(C)C(=O)O)s3)c(-c3ccsc3C#N)c3ccccc32)cc1 [3/16] | 1000 to 10000 | 100 to 1000 | 100 to 1000 |
| N#Cc1sccc1-c1c(-c2ccc(F)cc2)n(S(=O)(=O)c2ccc(Cl)cc2)c2ccccc12 [26/1] | 1000 to 10000 | < 100 | 100 to 1000 |
| O=S(=O)(c1ccc(Cl)cc1)n1c(-c2cccs2)c(-c2ccsc2C(F)F)c2ccccc21 [20/3] | 100 to 1000 | < 100 | < 100 |
| Cc1ncc(S(=O)(=O)n2c(-c3ccccc3)c(-c3ccsc3C#N)c3ccccc32)s1 [1/42] | 1000 to 10000 | < 100 | < 100 |
| N#Cc1sccc1-c1c(-c2cccs2)n(S(=O)(=O)c2ccc(F)cc2F)c2ccccc12 [20/12] | 1000 to 10000 | < 100 | < 100 |
| COc1ccc2c(c1)c(-c1ccsc1C#N)c(-c1cccs1)n2S(=O)(=O)c1ccc(Cl)cc1 [1/39] | > 10000 |  | 1000 to 10000 |
| COc1ccc(S(=O)(=O)n2c(-c3cccs3)c(-c3ccsc3C#N)c3ccccc32)cc1 [20/14] | 100 to 1000 | < 100 |  |
| COc1ccc(S(=O)(=O)n2c(-c3ccc(CCC(=O)O)cc3)c(-c3ccsc3C#N)c3ccccc32)cc1 [15/6] | 1000 to 10000 | 100 to 1000 |  |
| N#Cc1sccc1-c1c(-c2cccs2)n(S(=O)(=O)c2ccc(Cl)cc2)c2cc(CCC(=O)O)c(O)cc12 [Example 17, 3-(1-((4-Chlorophenyl)sulfonyl)-3-(2-cyanothiophen-3-yl)-5-hydroxy-2-(thiophen-2-yl)-1H-indol-6-yl)propanoic Acid] | > 10000 | 1000 to 10000 |  |
